“And” between values parts separate entries of the source, which are not always exact repeats. Equal entries are not always repeated.
Assay: xn = mol fraction of the nth substance listed
Details: 92.3 kPa, Liquid; for viscosity: Concentric cylinders viscometry; for speed of sound: Frequency=3 MHz, Single path-length method; for mass density: Vibrating tube method

CCO [ethanol] + O
Details	mass density, 303.15 K	mass density, 308.15 K	speed of sound, 303.15 K [m/s]	speed of sound, 308.15 K [m/s]	viscosity, 303.15 K [mPa·s]	viscosity, 308.15 K [mPa·s]
x1 = 0.0024	994.464 kg/m3	992.863 kg/m3	1513.4	1523.3	–	–
x1 = 0.0201	986.86 kg/m3	985.15 kg/m3	–	–	0.9816	0.8821
x1 = 0.0202	986.01 kg/m3	984.706 kg/m3	1541.3	1548.3	–	–
x1 = 0.0295	983.11 kg/m3	981.361 kg/m3	1555	1560.3	–	–
x1 = 0.0366	980.577 kg/m3	978.735 kg/m3	1564.9	1568.9	–	–
x1 = 0.0408	978.54 kg/m3	976.58 kg/m3	–	–	1.162	1.006
x1 = 0.0497	976.06 kg/m3	973.32 kg/m3	–	–	1.223	1.073
x1 = 0.0513	975.532 kg/m3	973.534 kg/m3	1583.5	1584.5	–	–
x1 = 0.06	971.89 kg/m3 and 972.787 kg/m3	970.651 kg/m3 and 969.36 kg/m3	1592.4	1591.8	1.323	1.158
x1 = 0.0707	969.513 kg/m3	967.196 kg/m3	1601.4	1598.7	–	–
x1 = 0.0796	966.81 kg/m3	964.08 kg/m3	–	–	1.49	1.284
x1 = 0.0801	966.689 kg/m3	964.224 kg/m3	1607	1602.7	–	–
x1 = 0.0904	963.577 kg/m3	960.944 kg/m3	1610.8	1604.7	–	–
x1 = 0.0997	960.797 kg/m3	958.013 kg/m3	1611.9	1604.4	–	–
x1 = 0.1004	958.69 kg/m3	955.87 kg/m3	–	–	1.656	1.43
x1 = 0.1294	951.878 kg/m3	948.682 kg/m3	1602.7	1592.3	–	–
x1 = 0.1497	945.612 kg/m3	942.174 kg/m3	1588.3	1576.5	–	–
x1 = 0.1499	945.56 kg/m3	942.15 kg/m3	–	–	1.88	1.591
x1 = 0.1984	928.77 kg/m3	925.04 kg/m3	–	–	1.994	1.696
x1 = 0.2008	929.658 kg/m3	925.836 kg/m3	1540.8	1527.8	–	–
x1 = 0.2499	915.3 kg/m3	911.28 kg/m3	–	–	2.048	1.719
x1 = 0.2503	914.742 kg/m3	910.712 kg/m3	1493.5	1480	–	–
x1 = 0.2998	900.761 kg/m3	896.603 kg/m3	1450.6	1436.6	–	–
x1 = 0.3016	900.76 kg/m3	896.6 kg/m3	–	–	1.982	1.697
x1 = 0.3499	888.09 kg/m3	883.84 kg/m3	–	–	1.934	1.664
x1 = 0.3507	887.521 kg/m3	883.273 kg/m3	1411.8	1397.3	–	–
x1 = 0.399	876.09 kg/m3	871.78 kg/m3	–	–	1.863	1.617
x1 = 0.3992	875.988 kg/m3	871.678 kg/m3	1379.4	1364.6	–	–
x1 = 0.4495	865.03 kg/m3	860.66 kg/m3	–	–	1.783	1.55
x1 = 0.4514	864.712 kg/m3	860.353 kg/m3	1348.7	1333.4	–	–
x1 = 0.4989	855.7 kg/m3	851.3 kg/m3	–	–	1.697	1.482
x1 = 0.5002	854.622 kg/m3	850.223 kg/m3	1322.3	1306.7	–	–
x1 = 0.5494	845.433 kg/m3	841.009 kg/m3	1298.6	1282.7	–	–
x1 = 0.5495	846.35 kg/m3	841.93 kg/m3	–	–	1.636	1.437
x1 = 0.6018	836.274 kg/m3	831.83 kg/m3	1275.2	1259	–	–
x1 = 0.6067	835.6 kg/m3	831.06 kg/m3	–	–	1.528	1.347
x1 = 0.6503	828.55 kg/m3 and 828.435 kg/m3	823.98 kg/m3 and 824.09 kg/m3	1255.3	1238.8	1.46	1.292
x1 = 0.6956	821.65 kg/m3	817.19 kg/m3	–	–	1.388	1.229
x1 = 0.7006	820.66 kg/m3	816.2 kg/m3	1235.5	1218.8	–	–
x1 = 0.7355	815.498 kg/m3	811.052 kg/m3	1222.2	1206.3	–	–
x1 = 0.75	813.63 kg/m3	809.16 kg/m3	–	–	1.315	1.171
x1 = 0.7843	809.09 kg/m3	804.63 kg/m3	–	–	1.272	1.135
x1 = 0.7965	807.074 kg/m3	802.628 kg/m3	1199.9	1183	–	–
x1 = 0.8433	800.833 kg/m3	796.401 kg/m3	1183.1	1166.1	–	–
x1 = 0.8475	801.24 kg/m3	796.81 kg/m3	–	–	1.201	1.077
x1 = 0.8864	795.58 kg/m3	791.17 kg/m3	–	–	1.141	1.027
x1 = 0.892	794.442 kg/m3	790.037 kg/m3	1165.4	1148.7	–	–
x1 = 0.9093	792.256 kg/m3	787.861 kg/m3	1159.2	1142.6	–	–
x1 = 0.9207	790.841 kg/m3	786.448 kg/m3	1155.2	1138.3	–	–
x1 = 0.929	789.85 kg/m3	785.46 kg/m3	–	–	1.086	0.9821
x1 = 0.9307	789.562 kg/m3	785.175 kg/m3	1151.5	1134.6	–	–
x1 = 0.9398	788.477 kg/m3	784.096 kg/m3	1148.3	1131.4	–	–
x1 = 0.9483	787.394 kg/m3	783.019 kg/m3	1145.2	1128.4	–	–
x1 = 0.9603	785.958 kg/m3	781.59 kg/m3	1141.1	1124.2	–	–
x1 = 0.9702	784.743 kg/m3	780.379 kg/m3	1137.5	1120.6	–	–
x1 = 0.9801	783.417 kg/m3	779.061 kg/m3	1134.3	1117.5	–	–
x1 = 0.9895	782.456 kg/m3	778.103 kg/m3	1130.8	1114	–	–
x1 = 1	780.941 kg/m3	776.592 kg/m3	1126.4	1109.6	0.992	0.9039
